In patent US20050043326A1, “Compounds” (Pfizer Inc, priority 2003, published 2005):

Legend:
[1] = tested on: TNFα release from human peripheral blood mononuclear cells; assay: Inhibition of TNFα release from LPS-stimulated human peripheral blood mononuclear cells (TNFα screen); assay type: cell-based; conditions: PBMC, 18 hours incubation, TNFα in supernatant by ELISA
Procedure: Venous blood is collected from healthy volunteers and the mononuclear cells purified by centrifugation through Histopaque (Ficoll) cushions. TNFα production from these cells is stimulated by addition of lipopolysaccharide. After 18 hours incubation in the presence of LPS, the cell supernatant is removed and the concentration of TNFα in the supernatant determined by ELISA.
(§1) Data are presented below for the Examples in which the TNFα and PDE4 inhibition are presented as IC50 values in nM.

PDE4 = PDE4 inhibition: hydrolysis of tritium labelled cAMP to AMP, SPA bead scintillation counting; assay type: biochemical; conditions: tritium labelled cAMP incubated with PDE4, yttrium silicate SPA beads
Procedure: The PDE4 inhibitory activity of the nicotinamide derivatives of the formula (I) is determined by the ability of compounds to inhibit the hydrolysis of cAMP to AMP by PDE4 (Thompson J W, Teraski W L, Epstein P M, Strada S J., “Assay of nucleotidephosphodiesterase and resolution of multiple molecular forms of the isoenzyme”, Advances in cyclic nucleotides research, edited by Brooker G, Greengard P, Robinson G A. Raven Press, New York 1979, 10, p. 69-92). Tritium labelled cAMP is incubated with PDE4. Following incubation, the radiolabelled AMP produced is able to bind yttrium silicate SPA beads. These SPA beads subsequently produce light that can be quantified by scintillation counting. The addition of a PDE4 inhibitor prevents the formation of AMP from cAMP and counts are diminished. The IC50 of a PDE4 inhibitor can be defined as the concentration of a compound that leads to a 50% reduction in counts compared to the PDE4 only (no inhibitor) control wells.
as §1

IC50 [1]	IC50 (PDE4)	SMILES
0.02 nM	1.8 nM	O=C(N[C@H]1CC[C@@H](NS(=O)(=O)c2cccc3cccnc23)CC1)c1cccnc1OC1CCSCC1 [Example 65]
1 nM	3.5 nM	O=C(N[C@H]1CC[C@@H](NS(=O)(=O)c2c(O)ccc3nsnc23)CC1)c1cc(F)cnc1OC1CCSCC1 [Example 74, Syn-5-Fluoro-N-[4-(5-hydroxy-benzo[1,2,5]thiadiazole-4-sulfonylamino)-cyclohexyl]-2-(tetrahydro-thiopyran-4-yloxy)-nicotinamide]
